Measured values: PubChem BioAssay (NCI)
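96-well plates; 48 h exposure; 5 concentrations. Endpoints by linear interpolation between flanking doses. Not reached: highest tested concentration assigned. Abbreviation: GI50, concentration required for 50% inhibition of growth. At the TGI there is no net growth.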

Columns and labels:
Assay in all cases: DTP human tumour cell line panel, 48 h
[1] = system: HT29 colon
[2] = system: OVCAR-3 ovarian
[3] = system: HCT-116 colon
[4] = system: NCI-H460 lung
[5] = system: UACC-257 melanoma
[6] = system: M14 melanoma
[7] = system: K-562 leukemia
[8] = system: SK-MEL-28 melanoma
[9] = system: OVCAR-5 ovarian
[10] = system: HOP-62 NSCLC
[11] = system: MDA-MB-231 breast
[12] = system: MCF7 breast
[13] = system: DU-145 prostate
[14] = system: SN12C renal
[15] = system: A549 NSCLC
[16] = system: SF-539 CNS
[17] = system: CCRF-CEM leukemia
[18] = system: OVCAR-4 ovarian
[19] = system: SNB-75 CNS
[20] = system: UACC-62 melanoma
[21] = system: NCI/ADR-RES ovarian
[22] = system: SF-268 CNS
[23] = system: TK-10 renal
[24] = system: BT-549 breast
[25] = system: SF-295 CNS
[26] = system: PC-3 prostate
[27] = system: LOX IMVI melanoma
[28] = system: SK-MEL-5 melanoma
[29] = system: NCI-H522 lung
[30] = system: ACHN renal
[31] = system: MOLT-4 leukemia
[32] = system: U251 CNS
[33] = system: A498 renal
[34] = system: 786-0 renal
[35] = system: RXF 393 renal
[36] = system: MALME-3M melanoma
[37] = system: IGROV1 ovarian
[38] = system: SNB-19 CNS
[39] = system: HS 578T breast
[40] = system: HOP-92 NSCLC
[41] = system: MDA-MB-468 breast
[42] = system: NCI-H226 lung
[43] = system: OVCAR-8 ovarian
[44] = system: HL-60(TB) leukemia
[45] = system: HCC-2998 colon
[46] = system: MDA-MB-435
[47] = system: SK-OV-3 ovarian
[48] = system: SK-MEL-2 melanoma
[49] = system: SW-620 colon
[50] = system: HCT-15 colon
[51] = system: RPMI-8226 leukemia
[52] = system: T-47D breast
[53] = system: COLO 205 colon
[54] = system: UO-31 renal
[55] = system: EKVX NSCLC
[56] = system: NCI-H23 lung
[57] = system: KM12 colon
[58] = system: CAKI-1 renal

`CN(C)c1nc(NCCNS(=O)(=O)c2ccc(C(=O)/C=C/c3ccc(Cl)cc3)cc2)nc(Nc2ccc(F)cc2)n1` was tested, and the GI50 [1] was 2.15 µM, the TGI [1] was 5.72 µM and the GI50 [2] was 3.16 µM. It also gave a TGI [2] of 11.9 µM, a GI50 [3] of 1.66 µM and a TGI [3] of 3.11 µM. For the same compound, the GI50 [4] was 3.38 µM, the TGI [4] was 13.8 µM and the GI50 [5] was 8.36 µM. The TGI [5] was 21.8 µM, the GI50 [6] was 4.14 µM and the TGI [6] was 15.3 µM. For the same compound, the GI50 [7] was 3.29 µM, the TGI [7] was over 100 µM and the GI50 [8] was 6.77 µM. The TGI [8] was 20.1 µM, the GI50 [9] was 10.7 µM and the TGI [9] was 22.6 µM. It also gave a GI50 [10] of 12.5 µM, a TGI [10] of 27.5 µM and a GI50 [11] of 4.72 µM. For the same compound, the TGI [11] was 17.4 µM, the GI50 [12] was 2.28 µM and the TGI [12] was 6.33 µM. It also gave a GI50 [13] of 9.7 µM, a TGI [13] of 21.8 µM and a GI50 [14] of 3.79 µM. The TGI [14] was 15.9 µM, the GI50 [15] was 4.52 µM and the TGI [15] was 17.4 µM. The GI50 [16] was 10.1 µM, the TGI [16] was 22 µM and the GI50 [17] was 3.75 µM. The TGI [17] was over 100 µM, the GI50 [18] was 5.92 µM and the TGI [18] was 22 µM. For the same compound, the GI50 [19] was 5.6 µM, the TGI [19] was 25.7 µM and the GI50 [20] was 5.41 µM. For the same compound, the TGI [20] was 18.7 µM, the GI50 [21] was 5.49 µM and the TGI [21] was 18.4 µM. The GI50 [22] was 6.21 µM, the TGI [22] was 23.5 µM and the GI50 [23] was 11.7 µM. For the same compound, the TGI [23] was 30.3 µM, the GI50 [24] was 11.6 µM and the TGI [24] was 23.9 µM. The GI50 [25] was 6.11 µM, the TGI [25] was 19.8 µM and the GI50 [26] was 3.74 µM. For the same compound, the TGI [26] was 14.1 µM, the GI50 [27] was 2.74 µM and the TGI [27] was 9.16 µM. The GI50 [28] was 5.89 µM, the TGI [28] was 18.8 µM and the GI50 [29] was 7.1 µM. It also gave a TGI [29] of 22 µM, a GI50 [30] of 4.2 µM and a TGI [30] of 15.3 µM. For the same compound, the GI50 [31] was 3.07 µM, the TGI [31] was over 100 µM and the GI50 [32] was 5.25 µM. The TGI [32] was 18.6 µM, the GI50 [33] was 10.5 µM and the TGI [33] was 23.1 µM. It also gave a GI50 [34] of 7.28 µM, a TGI [34] of 20.2 µM and a GI50 [35] of 3.09 µM. The TGI [35] was 15.1 µM, the GI50 [36] was 12.8 µM and the TGI [36] was 26.4 µM. It also gave a GI50 [37] of 8.58 µM, a TGI [37] of 21.4 µM and a GI50 [38] of 9.18 µM. It also gave a TGI [38] of 21.3 µM, a GI50 [39] of 11.4 µM and a TGI [39] of 58.1 µM. It also gave a GI50 [40] of 3.83 µM, a TGI [40] of 14.7 µM and a GI50 [41] of 3.71 µM. The TGI [41] was 14.8 µM, the GI50 [42] was 6.14 µM and the TGI [42] was 24.3 µM. For the same compound, the GI50 [43] was 10.2 µM, the TGI [43] was 23.7 µM and the GI50 [44] was 4.39 µM. It also gave a TGI [44] of over 100 µM, a GI50 [45] of 2.48 µM and a TGI [45] of 6.9 µM. For the same compound, the GI50 [46] was 3.8 µM, the TGI [46] was 14 µM and the GI50 [47] was 11.5 µM. It also gave a TGI [47] of 27.7 µM, a GI50 [48] of 5.47 µM and a TGI [48] of 19.5 µM. It also gave a GI50 [49] of 2.78 µM, a TGI [49] of 11 µM and a GI50 [50] of 4.62 µM. For the same compound, the TGI [50] was 16.9 µM, the GI50 [51] was 2.47 µM and the TGI [51] was 7.11 µM. It also gave a GI50 [52] of 4.37 µM, a TGI [52] of 18 µM and a GI50 [53] of 5.96 µM. The TGI [53] was 18.7 µM, the GI50 [54] was 4 µM and the TGI [54] was 16.6 µM. The GI50 [55] was 3.11 µM, the TGI [55] was 14.7 µM and the GI50 [56] was 10.7 µM. The TGI [56] was 23.4 µM, the GI50 [57] was 2.97 µM and the TGI [57] was 9.11 µM. For the same compound, the GI50 [58] was 4.93 µM and the TGI [58] was 19.5 µM.
